{"source": "patent US20040116346A1", "about": "“Affinity small molecules for the EPO receptor” (priority 2002, published 2004)", "type_in_all_cases": "cell-based", "key": {"[1]": {"tested_on": "TF-1 and UT-7 cells", "assay": "biological testing in cell lines (cell proliferation assay and cell signaling assay)", "description": "Compounds identified in the initial screen were further tested for their biological activity in two assays: a cell proliferation assay and a cell signaling assay in TF-1 and UT-7 cells. The hit rate in cell proliferation was 0.16%; hit rate in cell signaling was 0.25%.\nAt the end of the biological testing in cell lines TF-1 and UT-7, E4, E5, E5 analogs and E6 molecules were some of the compounds identified as showing the best activity.\nCompounds identified in the initial screen were further tested for their biological activity in two assays: a cell proliferation assay and a cell signaling assay in TF-1 cells. The hit rate in cell proliferation was 0.16%; hit rate in cell signaling was 0.25%.\nAt the end of the biological testing in cell line, E4, E5, E5 analog, and E6 molecules were some of the compounds identified as showing the best activity."}, "[2]": {"tested_on": "TF-1 cells", "assay": "Cell proliferation", "conditions": "TF-1 cells stimulated for 96 hours", "description": "TF-1 cells were stimulated for 96 hours with different non-peptide EPO-R modulators, and it was observed that the non-peptide EPO binding molecules stimulated cellular proliferation in dose-responsive manner and to the extent of the natural hormone."}, "[3]": {"tested_on": "Mouse or human bone marrow cells", "assay": "Formation of erythroid colonies (CFU-e, BFU-e) from bone marrow in methylcellulose", "conditions": "mouse and human bone marrow", "description": "Mouse or human bone marrow cells were stimulated in methylcellulose for 7 days (mouse) or 14 days (human) with non-peptide EPO-R modulators. Formation of erythroid colonies was observed. (See FIGS. 6 to 8)\n(1) Dilute human bone marrow 1:1 with sterile PBS. (2) Slowly layer bone marrow into 50 ml tubes containing 20 ml of LSM Lymphocyte separation medium (ICN/Cappel—cat #50494). 50 ml bone marrow will yield 2 tubes. (3) Spin tubes at 2000 rpm for 30 minutes with brake off. (4) Slowly take out the middle layer using a 10 ml pipette and transfer into a new 50 ml tube. (5) Add PBS +0.5% BSA +5 mM EDTA to tube for washing. (6) Spin tube for 5 minutes at speed 4 with brake on. (7) Repeat wash step 2 more times. (8) After 3rd wash, resuspend pellet in SF Iscoves' MDM medium. (9) Count by diluting cells in 3% acetic acid. (10) Dilute cells to desired concentration (5×10^5 cells/ml) and seed onto methylcellulose.\n(1) Tubes containing 3.0 ml of methylcellulose medium (Stemcell Technology, cat #H4230) supplemented with 50 ng/ml hSCF are prepared. (Alternatively the methylcellulose could be supplemented with 50 ng/ml hSCF, 20 ng/ml of hIL-3 and hIL-6). (2) Compounds or EPO of desired concentrations are added to the tubes. […] Colonies are scored on day twelve.\nBone marrow cells were isolated from mouse femurs. […] The colonies were scored on day seven. […]"}, "[4]": {"tested_on": "CD34+cells", "assay": "erythroid colony formation in methylcellulose, CD34+ cells", "conditions": "colonies counted on day 14", "description": "CD34+cells were isolated and seeded in the presence of compound. The colonies were counted on day 14."}}}
{"smiles": "Cc1ccc(Cl)cc1Nc1nc2nc(C)c(NCC3CC3)cn2n1", "note": "[Compound E5]", "values": [{"measurement": "maximum activity compared to EPO natural hormone", "setting": "[1]; cell line (TF-1 cells)", "result": "maximum activity comparable to that of the maximum activity of EPO"}, {"measurement": "maximum activity compared to EPO natural hormone", "setting": "[1]; cell lines TF-1 and UT-7, in the presence of low levels of EPO", "result": "maximum activity comparable to that of the maximum activity of EPO"}, {"measurement": "cellular proliferation", "setting": "[2]", "result": "proliferative effect"}, {"measurement": "CFU-e formation compared with EPO", "setting": "[3]", "result": "stimulate CFU-e formation to the same extent as EPO"}, {"measurement": "cooperation with EPO on erythroid colony formation", "setting": "[4]", "result": "cooperation"}]}
